In patent EP4782437A1, “HETEROARYL COMPOUND, AND PREPARATION METHOD THEREFOR AND USE THEREOF IN MEDICINE” (Jiangsu Hengrui Pharmaceuticals Co., Ltd., priority 2023, dated 2025):

How the values were obtained:
[1] = system: B cell activation in human whole blood; assay: Inhibition of B cell activation in human whole blood (CD69 expression, flow cytometry); assay type: cell-based; details: anti-human IgD 30 µg/ml + IL-4 5 ng/ml, 18 hours, CD69-positive CD19-positive B cells, read-out: IC50 values of inhibitory activity against B cell activation in human whole blood
Excerpt: Test example 2: Inhibitory activity of compounds of the present disclosure against B cell activation in human whole blood • I. Experimental materials and instruments • 1. Human whole blood (internal recruitment) • 2. Goat F(ab')2 anti-human IgD-UNLB (SouthernBiotech, 2032-01) • 3. DPBS (1x) (Gibco, 14190-144) • 4. Recombinant human IL-4 (Peprotech, 200-04) • 5. Brilliant Violet 421™ anti-human CD19 antibody (Biolegend, 302234) • 6. APC anti-human CD69 antibody (Biolegend, 310910) • 7. APC mouse IgG1, κ isotype control antibody (Biolegend, 400120) • 8. eBioscience™ 10X RBC lysis buffer (multi-species) (Thermo, 004300-54) • 9. NEST 96-well deep-well plate (Wuxi NEST Biotechnology Co., Ltd., 503501) • 10. 96-well round-bottom plate (Corning, 3788) • 11. 96-well flat-bottom plate (Corning, 3599) • 12. Attune™ NxT acoustic focusing cytometer (ThermoFisher Scientific, 4.2.0) • 13. Cell incubator (Thermo, Forma steri-cycle i160) • II. Experimental procedure
B cells express the B cell receptor (BCR) complex on their surface. When B cells in human whole blood are induced to activate, they can trigger the downstream signalling pathways of the receptor and express the activation marker CD69. The expression of CD69 in activated B cells was detected by flow cytometry, and the IC50 of the compounds were calculated to evaluate the effects of the compounds on BCR activation.
The test compounds dissolved in 100% DMSO at 20 mM were diluted with 100% DMSO to a concentration of 1 mM, which represents the 200× concentration of the highest compound concentration point in the reaction system. The compounds at this concentration were then subjected to 8-point 4-fold serial dilution with 100% DMSO. The positive control wells were set with 100% DMSO, whereas the negative control wells were set with Remiburtinib at a final concentration of 5 µM. The serially diluted compounds and 100% DMSO were further diluted 10-fold in PBS to achieve the 20× concentration, followed by thorough mixing.
After thorough mixing, the whole blood sample was transferred to a loading reservoir and then dispensed into a 96-well flat-bottom plate at 80 µl per well. The compound dilution was dispensed at 5 µl per well. The 11th column of each row was designated as the negative control well, with 5 µl of 100 µM positive control drug added to each well. After thorough mixing for 5 min, the plate was incubated in a 37°C incubator for 30 min. Human IgD antibody was diluted 1.67-fold with PBS to a concentration of 300 µg/mL, and 10 µl of the diluted solution was added to each well of the culture plate (final concentration: 30 µg/ml). Human IL-4 (stock solution at 50 µg/ml) was diluted 500-fold with PBS to a concentration of 100 ng/mL, and 5 µl of the diluted solution was added to each well of the culture plate (final concentration: 5 ng/ml). After thorough mixing for 5 min, the plate was cultured in a 37°C incubator with 5% CO2 for 18 hours.
Flow cytometry detection: CD69-APC, CD19-BV421 and CD4-APC antibodies, and the isotype control antibodies for CD69-APC were removed from 4°C storage. Each antibody was added at 1 µl per well. After thorough mixing for 5 min, the plate was incubated for 30 min at 4°C (refrigerator) in the dark for staining. The 10X RBC lysis buffer was diluted in water to prepare 1X RBC lysis buffer. Aliquots of 1 ml of the lysis buffer were dispensed into each well of a 96-well deep-well plate in advance. The stained samples were transferred into the deep-well plate containing the lysis buffer for erythrocyte lysis. After completing the transfer of an entire plate, the plate was incubated in the dark for 15-20 min. Upon completion of lysis, the plate was centrifuged at 2000 rpm for 4 min. Each well was washed with 1 ml of PBS. Subsequently, the cells were resuspended in 200 µl of PBS, transferred to a 96-well plate, and washed twice more using the same procedure. The samples were resuspended in 200 µl of PBS per well and then subjected to flow cytometry detection. […]

[2] = system: mouse RPA model; assay: Efficacy in mouse RPA model (acute urticaria induced by OVA antigen and anti-OVA IgG); assay type: in vivo, C57BL/6N mice; details: single dose, p.o.; for inhibition of OVA-induced skin swelling in mice: compared with the model group
Description: To evaluate the efficacy of compound 3 in a mouse RPA model.
The administration volume of the vehicle was 10 ml/kg, and that of compound 3 was 20 ml/kg. The vehicle consisted of 0.5% MC + 0.5% Tween 80 + 99% water.
Thirty-three female C57BL/6N mice weighing 18-20 g were purchased from Vital River Laboratories. Animal production license No.: SCXK (Zhe) 2024-0001; animal qualification certificate No.: 20240229Abzz0619000122. The mice were housed in an SPF-grade animal facility under a 12/12-hour light/dark cycle, with a constant temperature of 23°C ± 1°C and a relative humidity of 50-60%. Food and water were provided ad libitum.
After acclimatisation, the mice were grouped and administered as follows: Table 4. Animal grouping and dosing regimen for in vivo efficacy experiment
After acclimatisation, the mice were shaved on the back one day prior to the experiment for skin preparation. On the day of the experiment, the mice were administered the vehicle control or compound 3 via oral gavage at administration volumes of 10 ml/kg and 20 ml/kg, respectively. Two hours post-administration, the mice were anaesthetised with isoflurane, and the thickness of the dorsal skin was measured using a vernier calliper. Upon completion of the measurement, 30 µg of mouse anti-OVA IgG was intradermally injected into the dorsal skin of the mice, while an equal volume of PBS was injected into the control group. Simultaneously, 200 µl of 2 mg/ml OVA antigen was intravenously injected. After 3 hours, the thickness of the skin swelling at the modelling site was measured.
Data of relevant indicators for animals in each group were expressed as mean ± standard deviation (Mean ± SD) and statistically analysed and plotted using GraphPad software.

C=CC(=O)N(C)CCOc1c(N)ncnc1-c1cc(F)cc(NC(=O)c2cc3c(cc2F)C2(CC2)CO3)c1C [Example 3, N-(3-(6-amino-5-(2-(N-methacrylamido)ethoxy)pyrimidin-4-yl)-5-fluoro-2-methylphenyl)-5-fluoro-2H-spiro[benzofuran-3,1'-cyclopropane]-6-carboxamide]
IC50 [1]: 10 to 100 nM | inhibitory effect on skin swelling across doses ([2]; 30, 100 and 150 mpk): dose-dependent inhibitory effect | inhibition of OVA-induced skin swelling in mice ([2]; 30 mpk): no statistically significant difference | inhibition of OVA-induced skin swelling in mice ([2]; 100 mpk): significantly inhibited | inhibition of OVA-induced skin swelling in mice ([2]; 150 mpk): significantly inhibited
